ChEMBL document CHEMBL3808310, “New anti-inflammatory sterols from a gorgonian Pinnigorgia sp” (2016)

How the values were obtained:
RAW264.7 [1] = test: Antiinflammatory activity in mouse RAW264.7 cells assessed as reduction in LPS-induced iNOS protein levels at 10 uM preincubated for 10 mins followed by LPS challenge for 16 hrs by Western blot analysis; type: functional; parameters: scale not given: the % may be the effect or the level left
RAW264.7 [2] = test: Antiinflammatory activity in mouse RAW264.7 cells assessed as reduction in LPS-induced COX-2 protein levels at 10 uM preincubated for 10 mins followed by LPS challenge for 16 hrs by Western blot analysis; type: functional; parameters: scale not given: the % may be the effect or the level left

Row | SMILES | Activity (RAW264.7 [1]) [%] | Activity (RAW264.7 [2]) [%]
1 | C[C@@H]1C[C@H]2[C@@H]3CCC4=CC(=O)C=C[C@]4(C)[C@@]3(F)[C@@H](O)C[C@]2(C)[C@@]1(O)C(=O)CO [DEXAMETHASONE] | 9.6 | 1.7
2 | CC(C)[C@@H](C)/C=C/[C@@H](C)[C@H]1CC[C@H]2C3=C(CC[C@]12C)[C@@]1(C)CC[C@H](O)C[C@]12O[C@@H]2[C@@H]3O | 41.1 | 54
3 | CC(=O)OCC[C@]1(C)[C@@H]([C@H](C)CC[C@H](C)C(C)C)CC[C@H]1C1=C[C@H](O)[C@@]2(O)C[C@@H](O)CC[C@]2(C)C1=O | 33.2 | 54
